The compounds below were run against BRD4 (Homo sapiens, UniProt O60885) (assay: Time resolved fluorescence resonance energy transfer (TR-FRET) binding assay, bromodomain BRD4). Conditions: FRET BRD4 IC50 (nM), one of the FRET assays described.

| Compound | IC50 [nM] |
| --- | --- |
| [2H]C([2H])([2H])c1nnn(C)c1-c1cnc2c3ccc(N4C5CCCC4CC5)nc3n([C@H](c3ccccc3)C3CCOCC3)c2c1 [Example 184, 11-{8-Azabicyclo[3.2.1]octan-8-yl}-5-[4-(^2H3)methyl-1-methyl-1H-1,2,3-triazol-5-yl]-8-[(S)-oxan-4-yl(phenyl)methyl]-3,8,10-triazatricyclo[7.4.0.0^2,^7]trideca-1(9),2(7),3,5,10,12-hexaene] | < 10 |

Same assay, conditions: one of the FRET assays described; read-out: FRET BRD4 IC50

| Compound | IC50 [nM] |
| --- | --- |
| COc1nccc2c3ncc(-c4c(C)nnn4C)cc3n(C(c3ccc(F)cc3F)C3CCOCC3)c12 (racemic) [Example 25, 8-[(2,4-Difluorophenyl)(oxan-4-yl)methyl]-5-(dimethyl-1H-1,2,3-triazol-5-yl)-10-methoxy-3,8,11-triazatricyclo[7.4.0.0^2,^7]trideca-1(13),2(7),3,5,9,11-hexaene] | < 10 |
| [2H]C([2H])([2H])c1nnn(C)c1-c1cnc2c3cnc(C(C)(C)O)c(F)c3n([C@H](c3ccccc3)C3CCOCC3)c2c1 [Example 278, 2-{10-Fluoro-5-[4-(^2H3)methyl-1-methyl-1H-1,2,3-triazol-5-yl]-8-[(S)-oxan-4-yl(phenyl)methyl]-3,8,12-triazatricyclo[7.4.0.0^2,^7]trideca-1(13),2(7),3,5,9,11-hexaen-11-yl}propan-2-ol] | < 1 |
| [2H]C([2H])([2H])c1nnn(C)c1-c1cc2c(cn1)c1ncc(C(C)(C)O)cc1n2C(c1ncccc1F)C1CCOCC1 (single isomer, unassigned) [Example 366] | < 10 |
| Cc1nnn(C)c1-c1cnc2c3ccc(Cl)nc3n([C@H](c3ccccc3F)C3CCOCC3)c2c1 [Example 226, 11-Chloro-5-(dimethyl-1H-1,2,3-triazol-5-yl)-8-[(S)-(2-fluorophenyl)(oxan-4-yl)methyl]-3,8,10-triazatricyclo[7.4.0.0^2,^7]trideca-1(13),2(7),3,5,9,11-hexaene] | < 10 |
| COc1ccc2c3ncc(-c4c(C)nnn4C)cc3n(C(c3cccc(F)c3F)C3CCOCC3)c2n1 (racemic) [Example 17, 8-[(2,3-Difluorophenyl)(oxan-4-yl)methyl]-5-(dimethyl-1H-1,2,3-triazol-5-yl)-11-methoxy-3,8,10-triazatricyclo[7.4.0.0^2,^7]trideca-1(13),2(7),3,5,9,11-hexaene] | < 10 |
| Cc1nnn(C)c1-c1cnc2c3ccc(N4CC(C)S(=O)(=O)C(C)C4)nc3n([C@H](c3ccccc3)C3CCOCC3)c2c1 (single isomer, unassigned) [Example 190] | < 1 |
| CCCC(c1ccccc1)n1c2cc(-c3c(C)nnn3C)ncc2c2ncc(C(C)(C)O)cc21 (stereo not drawn) [Example 372] | < 1500 |
| COc1ncc(S(C)(=O)=O)c2c1c1ncc(-c3c(C)nnn3C)cc1n2[C@H](c1ccc(F)cc1)C1CCOCC1 [Example 52, 5-(Dimethyl-1H-1,2,3-triazol-5-yl)-8-[(S)-(4-fluorophenyl)(oxan-4-yl)methyl]-10-methanesulfonyl-13-methoxy-3,8,12-triazatricyclo[7.4.0.0^2,^7]trideca-1(13),2(7),3,5,9,11-hexaene] | < 1 |
| CNCCN(C)c1ccc2c3ncc(-c4c(OC)nnn4C)cc3n([C@H](c3ccccc3F)C3CCOCC3)c2n1 [Example 255, 8-[(S)-(2-Fluorophenyl)(oxan-4-yl)methyl]-5-(4-methoxy-1-methyl-1H-1,2,3-triazol-5-yl)-N-methyl-N-[2-(methylamino)ethyl]-3,8,10-triazatricyclo[7.4.0.0^2,^7]trideca-1(13),2(7),3,5,9,11-hexaen-11-amine] | < 10 |
| [2H]C([2H])([2H])c1nnn(C)c1-c1cnc2c3cnc(S(C)(=O)=O)cc3n([C@H](c3ccccc3F)C3CCOCC3)c2c1 [Example 245, 8-[(S)-(2-Fluorophenyl)(oxan-4-yl)methyl]-11-methanesulfonyl-5-[4-(^2H3)methyl-1-methyl-1H-1,2,3-triazol-5-yl]-3,8,12-triazatricyclo[7.4.0.0^2,^7]trideca-1(13),2(7),3,5,9,11-hexaene] | < 10 |
| [2H]C([2H])([2H])c1nnn(C)c1-c1cnc2c3cnc(C(C)=O)cc3n([C@H](c3ccccc3F)C3CCOCC3)c2c1 [Example 333] | < 10 |
| COc1ncc(Br)c2c1c1ncc(-c3c(C)nnn3C)cc1n2[C@H](c1ccccc1)C1CCOCC1 [Example 38, 10-Bromo-5-(dimethyl-1H-1,2,3-triazol-5-yl)-13-methoxy-8-[(S)-oxan-4-yl(phenyl)methyl]-3,8,12-triazatricyclo[7.4.0.0^2,^7]trideca-1(13),2(7),3,5,9,11-hexaene] | < 10 |
| [2H]C([2H])([2H])c1nnn(C)c1-c1cnc2c3c(F)c(C(C)(C)O)ncc3n([C@H](c3ccccc3)C3CCOCC3)c2c1 [Example 292, 2-{13-Fluoro-5-[4-(^2H3)methyl-1-methyl-1H-1,2,3-triazol-5-yl]-8-[(S)-oxan-4-yl(phenyl)methyl]-3,8,11-triazatricyclo[7.4.0.0^2,^7]trideca-1(13),2(7),3,5,9,11-hexaen-12-yl}propan-2-ol] | < 10 |
| [2H]C([2H])([2H])c1nnn(C)c1-c1cnc2c3ccc(Cl)nc3n(C(c3ncccc3F)C3CCOCC3)c2c1 (stereo not drawn) [Example 246, 11-Chloro-8-[(3-fluoropyridin-2-yl)(oxan-4-yl)methyl]-5-[4-(^2H3)methyl-1-methyl-1H-1,2,3-triazol-5-yl]-3,8,10-triazatricyclo[7.4.0.0^2,^7]trideca-1(13),2(7),3,5,9,11-hexaene] | < 10 |
| Cc1noc(C)c1-c1cnc2c3ccc(S(C)(=O)=O)nc3n([C@H](c3ccccc3)C3CCOCC3)c2c1 [Example 144, 5-(Dimethyl-1,2-oxazol-4-yl)-11-methanesulfonyl-8-[(S)-oxan-4-yl(phenyl)methyl]-3,8,10-triazatricyclo[7.4.0.0^2,^7]trideca-1(13),2(7),3,5,9,11-hexaene] | < 10 |
| [2H]C([2H])([2H])c1nnn(C)c1-c1cnc2c3c(OC)nc(C(C)(C)O)cc3n([C@H](c3ncccc3F)C3CCOCC3)c2c1 [Example 309, 2-{8-[(S)-(3-Fluoropyridin-2-yl)(oxan-4-yl)methyl]-13-methoxy-5-[4-(^2H3)methyl-1-methyl-1H-1,2,3-triazol-5-yl]-3,8,12-triazatricyclo[7.4.0.0^2,^7]trideca-1(9),2(7),3,5,10,12-hexaen-11-yl}propan-2-ol] | < 10 |
| Cc1nnn(C)c1-c1cnc2c3ccc(NS(C)(=O)=O)nc3n([C@H](c3ccccc3)C3CCOCC3)c2c1 [Example 208, N-[5-(Dimethyl-1H-1,2,3-triazol-5-yl)-8-[(S)-oxan-4-yl(phenyl)methyl]-3,8,10-triazatricyclo[7.4.0.0^2,^7]trideca-1(9),2(7),3,5,10,12-hexaen-11-yl]methanesulfonamide] | < 10 |
| [2H]C([2H])([2H])c1nnn(C)c1-c1cnc2c3cncc(S(C)(=O)=O)c3n([C@H](c3ccccc3)C3CCOCC3)c2c1 [Example 286, 10-Methanesulfonyl-5-[4-(^2H3)methyl-1-methyl-1H-1,2,3-triazol-5-yl]-8-[(S)-oxan-4-yl(phenyl)methyl]-3,8,12-triazatricyclo[7.4.0.0^2,^7]trideca-1(13),2(7),3,5,9,11-hexaene] | < 10 |
| Cc1noc(C)c1-c1ccc2c3ncc(-c4c(C)nnn4C)cc3n([C@H](c3ccccc3)C3CCOCC3)c2n1 [Example 147, 11-(Dimethyl-1,2-oxazol-4-yl)-5-(dimethyl-1H-1,2,3-triazol-5-yl)-8-[(S)-oxan-4-yl(phenyl)methyl]-3,8,10-triazatricyclo[7.4.0.0^2,^7]trideca-1(13),2(7),3,5,9,11-hexaene] | < 10 |
| Cc1nnn(C)c1-c1cnc2c3ccc(N4CCN(C)CC4)nc3n([C@H](c3ccccc3F)C3CCOCC3)c2c1 [Example 231, 5-(Dimethyl-1H-1,2,3-triazol-5-yl)-8-[(S)-(2-fluorophenyl)(oxan-4-yl)methyl]-11-(4-methylpiperazin-1-yl)-3,8,10-triazatricyclo[7.4.0.0^2,^7]trideca-1(13),2(7),3,5,9,11-hexaene] | < 10 |
| CCCC(c1ncccc1F)n1c2cc(-c3c(C)nnn3C)ncc2c2ncc(C(C)(C)O)cc21 (single isomer, unassigned) [Example 370] | < 10 |
| COc1nccc2c3ncc(-c4c(C)nnn4C)cc3n(C(c3c(F)cc(F)cc3F)C3CCOCC3)c12 (racemic) [Example 24, 5-(Dimethyl-1H-1,2,3-triazol-5-yl)-10-methoxy-8-[oxan-4-yl(2,4,6-trifluorophenyl)methyl]-3,8,11-triazatricyclo[7.4.0.0^2,^7]trideca-1(13),2(7),3,5,9,11-hexaene] | < 10 |
| 2-{13-Methoxy-5-[4-(^2H3)methyl-1-methyl-1H-1,2,3-triazol-5-yl]-8-[(S)-oxan-4-yl(phenyl)methyl]-3,8,12-triazatricyclo[7.4.0.0^2,^7]trideca-1(13),2(7),3,5,9,11-hexaen-11-yl}propan-2-ol [Example 344] | < 10 |
| Cc1noc(C)c1-c1cnc2c3cnc(C(C)(C)O)cc3n([C@H](c3ccccc3)C3CCOCC3)c2c1 [Example 335] | < 10 |
| Cc1nnn(C)c1-c1cnc2c3c(NCC4CC4)ncc(Cl)c3n([C@H](c3ccccc3)C3CCOCC3)c2c1 [Example 44, 10-Chloro-N-(cyclopropylmethyl)-5-(dimethyl-1H-1,2,3-triazol-5-yl)-8-[(S)-oxan-4-yl(phenyl)methyl]-3,8,12-triazatricyclo[7.4.0.0^2,^7]trideca-1(13),2(7),3,5,9,11-hexaen-13-amine] | < 10 |
| [2H]C([2H])([2H])c1nnn(C)c1-c1cnc2c3c(NCC(F)F)ncc(S(C)(=O)=O)c3n([C@H](c3ccccc3)C3CCOCC3)c2c1 [Example 117, N-(2,2-Difluoroethyl)-10-methanesulfonyl-5-[4-(^2H3)methyl-1-methyl-1H-1,2,3-triazol-5-yl]-8-[(S)-oxan-4-yl(phenyl)methyl]-3,8,12-triazatricyclo[7.4.0.0^2,^7]trideca-1(13),2(7),3,5,9,11-hexaen-13-amine] | < 10 |
